Data published in patent publication US9457029B2, “Treatment of genotyped diabetic patients with DPP-IV inhibitors such as linagliptin” (Boehringer Ingelheim International GmbH, priority 2009, dated 2016).

Key:
[1] = test system: inadequately controlled, metformin-treated type 2 diabetic patients; experiment: 12-week randomized, double-blind study of BI 1356 add-on to metformin vs placebo or open label glimepiride; type: in vivo, human
Experimental: Efficacy and safety of BI 1356 (1, 5, or 10 mg qd), a potent and selective dipeptidyl peptidase-4 (DPP-4) inhibitor, was examined in inadequately controlled, metformin-treated (MET, ≧1 g daily) type 2 diabetic patients (T2DM; HbA1c at baseline 7.5-10.0%). Effects were compared to add-on of placebo (PBO) or of open label glimepiride (GLIM; 1 to 3 mg qd) in a 12-week randomized, double-blind study. Antidiabetic medication other than metformin was washed out for 6 weeks (34.7% of the patients).
The primary endpoint was change from baseline in HbA1c, adjusted for prior antidiabetic medication. 333 patients (mean baseline HbA1c 8.3%; fasting plasma glucose [FPG] 185 mg/dL) were randomized to BI 1356, PBO or open-label GLIM. […] Reductions in FPG from baseline to Week 12 with BI 1356 were statistically significant (1 mg, −19 mg/dL; 5 mg, −35 mg/dL; 10 mg, −30 mg/dL). […] For this dose, >80% DPP-4 inhibition at trough in >80% of the patients at week 12 was achieved.
In total, 106 patients (43.1%) experienced adverse events (AEs) with similar incidences across all treatments. Most frequently reported episodes were nasopharyngitis (7.5%), diarrhoea (3.3%), and nausea (3.0%). […] Ten patients (3.7%) experienced serious AEs but none of these events were considered drug-related.

[2] = test system: patients with type 2 diabetes mellitus and insufficient glycemic control; type: in vivo, human
Experimental: A multi-center, 24-week, randomized, double-blind, placebo-controlled, parallel group study investigates the efficacy and safety of initial combination therapy with the DPP-4 inhibitor linagliptin (LI) and pioglitazone (PIO). […] Mean baseline characteristics (HbA1c 8.6%; fasting plasma glucose [FPG] 190 mg/dL; age 57.5 yrs; BMI 29.0 kg/m2) are similar between the groups. […] After 24 weeks of treatment, the adjusted mean change in HbA1c for the patients in the LI+ PIO group (full analysis set, last observation carried forward) is −1.06% (standard error (SE)±0.06). The difference in the adjusted mean HbA1c for the LI+ PIO group compared with PBO+PIO is −0.51% (p<0.0001; 95% confidence interval (CI), −0.71, −0.30). […] The proportion of patients that experienced at least one adverse event (AE) is similar for both LI+ PIO and PBO+PIO groups (136, 52.5% vs. 53.1%, respectively). Hypoglycemia is rare, occurring in 3 patients (1.2%) in the LI+ PIO group and none in the PBO+PIO group. All hypoglycemic events are of mild intensity.

[3] = test system: Japanese patients with type 2 diabetes mellitus; settings: VB 0.2 mg tid
the diabetic = settings: metformin on its own; cited from earlier work
[4] = 5 mg LI plus 30 mg PIO qd or 30 mg PIO plus placebo qd, 24 weeks

## CCC1=C(C)CN(C(=O)NCCc2ccc(S(=O)(=O)NC(=O)N[C@H]3CC[C@H](C)CC3)cc2)C1=O [GLIM, glimepiride, reference compound]
[1]; GLIM 1 to 3 mg qd add-on to metformin, 12 weeks
  drug-related hypoglycaemia, number of patients: 3 patients
[1]; open label GLIM 1 to 3 mg qd add-on to metformin, Week 12
  mean PBO corrected reduction in HbA1c: −0.90%

## CCc1ccc(CCOc2ccc(CC3SC(=O)NC3=O)cc2)nc1 (stereo not drawn) [PBO+PIO, pioglitazone]
[2]; [4]
  patients achieving a reduction in HbA1c of ≧0.5%: 50.8%
  patients achieving a target HbA1c of <7%: 30.5%
[2]; in vivo
  hypoglycemia, number of patients: none
  proportion of patients that experienced at least one adverse event (AE): 53.1%

## OCC(CO)N[C@H]1C[C@](O)(CO)[C@@H](O)[C@H](O)[C@H]1O [VB, voglibose, reference compound]
[3]; 26 weeks
  proportion of patients whose HbA1c level lowered by ≧0.5%: 37.7%
[3]; after 26 weeks
  proportion of patients achieving HbA1c<7.0%: 22.2%

## CN(C)C(=N)N=C(N)N [metformin]
The diabetic
  average improvement in the HbA1c value: 1.0-1.5%
